Tested on: cabbage black rot bacterium (Xanthomonas campestris)
Assay: Control test on cabbage black rot
Assay type: in vivo
Details: 350 ppm, cabbage sprayed four times at intervals of 7 days
Description: Two days after the second spraying, the cabbage was inoculated with an aqueous suspension of cabbage black rot bacterium (Xanthomonas campestris) by the method of spraying. Two weeks after the final spraying, the cabbage was investigated to calculated the degree of disease occurrence according to the following criterion. In the untreated plot, the degree of disease occurrence was 44.7.
Degree of disease occurrence=Σ(Number of hills at every degree of occurrence)×100÷(Number of hills investigated×3)
From the degree of disease occurrence, controlling degree was calculated according to the following equation. […] [formula]

Oc1cccc2cccnc12.[Cu] [8-Hydroxyquinoline-copper, 8-Hydroxyquinoline copper]
Controlling degreee (%): 59% | Degree of disease occurrence: 18.2 | Percentage of diseased hills (%): 54.5%

Source: patent US20020013350A1 (priority 1998, published 2002)
